# Measurements from ChEMBL document CHEMBL4725391, “Discovery and Optimization of Novel SUCNR1 Inhibitors: Design of Zwitterionic Derivatives with a Salt Bridge for the Improvement of Oral Exposure” (J Med Chem, 2020).
# Calls of active or inactive are those of the source. The rule behind the calls is not given here.
# What was measured:
# [1] = Octanol-water distribution coefficient, log D of the compound by shake flask method; format: physicochemical
# [2] = Permeability of compound by PAMPA assay; format: ADME
# [3] = Clearance in C57BL/6 mouse at 1 mg/kg, iv administered as bolus dose measured after 0.083 to 24 hrs by LC-MS/MS analysis; format: ADME, organism-based; details: in vivo, time 0.083-24 hrs
# [4] = Dose normalized AUC in C57BL/6 mouse at 3 mg/kg, po measured after 0.25 to 24 hrs by LC-MS/MS analysis; format: ADME, organism-based; details: in vivo, time 0.25-24 hrs
# [5] = Oral bioavailability in C57BL/6 mouse measured after 0.25 to 24 hrs by LC-MS/MS analysis; format: ADME, organism-based; details: in vivo, time 0.25-24 hrs
# Succinate receptor 1 = biological target: T1, Succinate receptor 1 (Homo sapiens, UniProt Q9BXA5); assay: Antagonist activity at human SUCNR1 expressed in human CHEM1 cells incubated for 60 mins in presence of [35S]GTPgammaS by scintillation proximity assay; format: functional, cell-based, Chem-1
# T1 sequence (Q9BXA5 whole entry): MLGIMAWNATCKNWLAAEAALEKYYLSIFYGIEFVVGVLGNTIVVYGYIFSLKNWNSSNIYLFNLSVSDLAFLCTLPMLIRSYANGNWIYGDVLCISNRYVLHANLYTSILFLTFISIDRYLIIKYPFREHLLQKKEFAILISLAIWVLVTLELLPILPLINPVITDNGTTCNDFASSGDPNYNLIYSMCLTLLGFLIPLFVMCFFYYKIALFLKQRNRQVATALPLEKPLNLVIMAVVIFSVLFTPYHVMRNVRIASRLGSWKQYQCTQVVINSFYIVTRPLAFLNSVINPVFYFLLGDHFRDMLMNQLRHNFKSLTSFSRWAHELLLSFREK
# [6] = Dose normalized AUC in C57BL/6 mouse at 10 mg/kg, po measured after 0.25 to 24 hrs by LC-MS/MS analysis; format: ADME, organism-based; details: in vivo, time 0.25-24 hrs
# [7] = Ionization constant (base), pKa of the compound; format: physicochemical
# [8] = Ionization constant (acid), pKa of the compound by UV metric assay; format: physicochemical
# [9] = biological target: T2, Succinate receptor 1 (Mus musculus) (UniProt Q99MT6); assay: Antagonist activity at mouse SUCNR1 100 uM
# T2 sequence (whole entry): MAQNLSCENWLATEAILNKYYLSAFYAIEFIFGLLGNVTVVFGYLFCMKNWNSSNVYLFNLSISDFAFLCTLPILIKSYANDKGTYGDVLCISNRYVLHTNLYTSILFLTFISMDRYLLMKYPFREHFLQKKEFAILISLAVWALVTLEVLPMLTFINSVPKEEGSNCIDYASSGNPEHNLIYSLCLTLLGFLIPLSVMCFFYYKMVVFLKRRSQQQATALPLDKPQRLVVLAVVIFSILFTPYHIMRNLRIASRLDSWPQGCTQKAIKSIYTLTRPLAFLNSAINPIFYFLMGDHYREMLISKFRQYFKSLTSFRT
# [10] = biological target: T3, Succinate receptor 1 (Rattus norvegicus) (UniProt Q6IYF9); assay: Antagonist activity at rat SUCNR1 expressed in CHO-K1 cell membranes at 100 uM incubated for 60 mins in presence of [35S]GTPgammaS by scintillation proximity assay relative to control; format: functional; details: filed as antagonist
# T3 sequence (whole entry): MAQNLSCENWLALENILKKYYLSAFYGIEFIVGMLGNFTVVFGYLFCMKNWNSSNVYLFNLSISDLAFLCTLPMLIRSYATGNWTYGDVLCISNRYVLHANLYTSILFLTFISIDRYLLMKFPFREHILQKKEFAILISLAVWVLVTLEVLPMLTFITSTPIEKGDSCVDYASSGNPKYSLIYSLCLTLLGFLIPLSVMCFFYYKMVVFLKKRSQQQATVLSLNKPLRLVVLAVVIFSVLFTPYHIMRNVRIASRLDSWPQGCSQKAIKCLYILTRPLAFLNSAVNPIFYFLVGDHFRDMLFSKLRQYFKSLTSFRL
# [11] = Protein binding in C57BL/6 mouse plasma at 5 uM incubated for 4 hrs by LC-MS/MS analysis; format: ADME, cell-free; details: read-out: PPB (converted)
# [12] = Protein binding in human plasma at 5 uM incubated for 4 hrs by LC-MS/MS analysis; format: ADME, cell-free; details: read-out: PPB (converted)
# [13] = Oral bioavailability in C57BL/6 mouse at 10 mg/kg measured after 0.25 to 24 hrs by LC-MS/MS analysis; format: ADME, organism-based; details: in vivo, time 0.25-24 hrs
# Complement factor D = Complement factor D (Homo sapiens, UniProt P00746); assay: Inhibition of recombinant human CFD expressed in Escherichia coli incubated up to 2 hrs by TR-FRET assay
# Coagulation factor XI = Coagulation factor XI (Homo sapiens, UniProt P03951); assay: Inhibition of human factor 11a by TR-FRET assay
# [14] = biological target: T4, Succinate receptor 1 (Homo sapiens) (UniProt Q9BXA5); assay: Antagonist activity at human SUCNR1 expressed in human CHEM1 cell membranes at 100 uM incubated for 60 mins in presence of [35S]GTPgammaS by scintillation proximity assay; format: functional; details: Chem-1
# T4 sequence (whole entry): T1 sequence (Q9BXA5 whole entry)
# [15] = Intrinsic clearance in rat liver microsomes; format: ADME, Microsome; details: read-out: CLH
# Coagulation factor XI, sequence (P03951 19-387 limits assumed): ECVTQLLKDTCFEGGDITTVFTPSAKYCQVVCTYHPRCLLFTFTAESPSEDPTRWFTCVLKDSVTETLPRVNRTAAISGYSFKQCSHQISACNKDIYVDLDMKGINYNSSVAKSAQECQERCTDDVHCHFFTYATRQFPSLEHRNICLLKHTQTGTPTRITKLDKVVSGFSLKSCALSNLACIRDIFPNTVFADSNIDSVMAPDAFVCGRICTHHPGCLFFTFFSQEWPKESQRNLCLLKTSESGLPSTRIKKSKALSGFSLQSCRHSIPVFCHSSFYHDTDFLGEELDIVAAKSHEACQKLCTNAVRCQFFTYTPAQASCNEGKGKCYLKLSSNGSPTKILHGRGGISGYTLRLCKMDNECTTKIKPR
# Coagulation factor XI, sequence (P03951 388-625 limits assumed): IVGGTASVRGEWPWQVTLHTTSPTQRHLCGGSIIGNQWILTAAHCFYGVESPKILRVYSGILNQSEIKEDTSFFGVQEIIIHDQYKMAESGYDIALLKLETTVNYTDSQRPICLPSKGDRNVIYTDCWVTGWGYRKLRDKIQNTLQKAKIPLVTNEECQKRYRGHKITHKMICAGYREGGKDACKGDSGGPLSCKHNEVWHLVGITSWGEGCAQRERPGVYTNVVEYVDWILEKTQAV
# Complement factor D, sequence (P00746 whole entry): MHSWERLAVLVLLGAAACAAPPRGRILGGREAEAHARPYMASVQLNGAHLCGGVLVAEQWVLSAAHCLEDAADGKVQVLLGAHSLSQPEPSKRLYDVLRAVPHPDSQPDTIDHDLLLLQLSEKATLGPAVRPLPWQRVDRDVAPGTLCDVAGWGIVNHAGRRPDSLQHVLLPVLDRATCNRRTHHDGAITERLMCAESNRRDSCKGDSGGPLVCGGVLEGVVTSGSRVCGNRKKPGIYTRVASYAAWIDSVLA
SMILES,logD [1],log(permeability) [2],IC50 (Succinate receptor 1) [µM],also measured
O=C(O)Cc1ccccc1NC(=O)c1cccc(-c2ccc(Cl)c(OC3CNC3)c2)c1,2.6,-5.2,,
NCCOc1cc(-c2cccc(C(=O)Nc3ccccc3CC(=O)O)c2)ccc1Cl,2.8,-5.4,,
O=C(O)Cc1cc(F)ccc1NC(=O)c1cccc(-c2cc(O[C@@H]3CCCNC3)c(Cl)cc2F)c1,,-4.4,,clearance [3]: 8 mL/min/kg; AUC/dose [4]: 5737 nmol·h/L; bioavailability [5]: 137%
NCc1cccc(-c2cccc(C(=O)Nc3ccccc3CC(=O)O)c2)c1,,< -5.3,27,AUC/dose [6]: 206 nmol·h/L; pKa [7]: 9.5; pKa [8]: 4
O=C(O)Cc1ccccc1NC(=O)c1cccc(-c2ccc(Cl)c(O[C@@H]3CCCNC3)c2F)c1,,-5,,clearance [3]: 12 mL/min/kg; AUC/dose [4]: 2353 nmol·h/L; bioavailability [5]: 81%
O=C(O)Cc1ccccc1NC(=O)c1cccc(-c2ccc(Cl)cc2)c1F,1.4,-3.6,,clearance [3]: 10 mL/min/kg; AUC/dose [4]: 7814 nmol·h/L; bioavailability [5]: 95%
O=C(Nc1ccccc1C(=O)O)c1cccc(-c2ccc(Cl)cc2)c1,3,-3.7,23,
O=C(O)Cc1cc(F)ccc1NC(=O)c1cccc(-c2cc(O[C@@H]3CCCNC3)c(Cl)cc2F)c1F,,-5.1,0.088,inhibition [9]: 23%; clearance [3]: 0.6 mL/min/kg; AUC/dose [4]: 37000 nmol·h/L; inhibition [10]: 56%; bioavailability [5]: 74%
O=C(O)Cc1ccccc1NC(=O)c1cccc(-c2ccc(Cl)c(O[C@@H]3CCCNC3)c2)c1F,,-5.3,,"clearance [3]: 11 mL/min/kg; AUC/dose [4]: 1437 nmol·h/L; fraction unbound at 4 h, 5 µM [11]: 0.026; bioavailability [5]: 46%; fraction unbound at 4 h, 5 µM [12]: 0.04"
O=C(O)C[C@H](NC(=O)c1cccc(-c2ccc(Cl)cc2)c1)c1cccnc1,1.3,-5.3,12,
NCc1cccc(-c2cccc(COc3ccccc3CC(=O)O)c2)c1,,-4.5,> 100,AUC/dose [6]: 3646 nmol·h/L; pKa [7]: 9.4; pKa [8]: 4.4; bioavailability [13]: > 100%
O=C(O)Cc1ccccc1NC(=O)c1cccc(-c2ccc(Cl)c(OC3CCNCC3)c2)c1,2.5,-5.4,0.14,pKa [7]: 9.9; pKa [8]: 4.1
NCc1cc(-c2cccc(C(=O)Nc3ccccc3CC(=O)O)c2)ccc1Cl,2.1,-5.3,0.3,"IC50 (Complement factor D): > 100 µM; IC50 (Coagulation factor XI): 5.8 µM; fraction unbound at 4 h, 5 µM [12]: 0.021"
O=C(O)C[C@@H](NC(=O)c1cccc(-c2ccc(Cl)cc2)c1)c1cccnc1,,,,inhibition [14]: inactive
O=C(O)Cc1cc(F)ccc1NC(=O)c1cccc(-c2ccc(Cl)c(O[C@@H]3CCCNC3)c2F)c1,,-4.9,,clearance [3]: 1.2 mL/min/kg; AUC/dose [4]: 26100 nmol·h/L; bioavailability [5]: 93%
O=C(O)Cc1ccccc1NC(=O)c1cccc(-c2ccc(Cl)c(O[C@H]3CCCNC3)c2)c1F,,,,"fraction unbound at 4 h, 5 µM [11]: 0.003; fraction unbound at 4 h, 5 µM [12]: 0.014"
O=C(O)Cc1ccccc1NC(=O)c1cccc(-c2ccc(Cl)cc2)c1,1.9,-3.8,1.3,"fraction unbound at 4 h, 5 µM [12]: < 0.01"
O=C(O)Cc1ccccc1NC(=O)c1cccc(-c2ccc(Cl)c(OC3CCNC3)c2)c1 (configuration not stated),2.8,-5.3,,
O=C(O)Cc1ccccc1NC(=O)c1cccc(-c2ccc(Cl)c(OC3CCCNC3)c2)c1 (configuration not stated),3.6,-4.4,0.52,pKa [7]: 9.4; pKa [8]: 4.1
O=C(O)CC(NC(=O)c1cccc(-c2ccc(Cl)cc2)c1)c1cccnc1 (configuration not stated),0.9,-5.3,32,microsomal CLint [15]: 25 µL/min/mg
CN1CCN(Cc2ccc(-c3cccc(C(=O)Nc4ccccc4CC(=O)O)c3)cc2)CC1,0.5,-5.5,,
